Here are results for 14 compounds from ChEMBL document CHEMBL1159176, “Regioselective synthesis of 3-aryl substituted pyrrolidines via palladium catalyzed arylation: pharmacological evaluation for central dopaminergic and serotonergic activity” (Bioorg Med Chem Lett, 1997).

Assay [1] concerns Rattus norvegicus. The assay can be described thus: Accumulation of Dihydroxyphenylalanine in cortical brain region in rat after injecting drug compound 65 min and NSD 1015 at a dose of 100 mg/kg administered subcutaneously, 30 min before death, tested in vivo. Format: functional. As to conditions: route subcutaneous.
The subject of assay [2] is Rattus norvegicus. The assay can be described thus: Accumulation of 5-Hydroxytryptophan in limbic region in rat after injecting drug compound 65 min and NSD 1015 at a dose of 100 mg/kg administered subcutaneously, 30 min before death, tested in vivo. As to conditions: route subcutaneous. Type of assay: functional, Limbic system.
Assay [3] deals with T1, 5-hydroxytryptamine receptor 1A (Rattus norvegicus, UniProt P19327).
T1 sequence (P19327 whole entry): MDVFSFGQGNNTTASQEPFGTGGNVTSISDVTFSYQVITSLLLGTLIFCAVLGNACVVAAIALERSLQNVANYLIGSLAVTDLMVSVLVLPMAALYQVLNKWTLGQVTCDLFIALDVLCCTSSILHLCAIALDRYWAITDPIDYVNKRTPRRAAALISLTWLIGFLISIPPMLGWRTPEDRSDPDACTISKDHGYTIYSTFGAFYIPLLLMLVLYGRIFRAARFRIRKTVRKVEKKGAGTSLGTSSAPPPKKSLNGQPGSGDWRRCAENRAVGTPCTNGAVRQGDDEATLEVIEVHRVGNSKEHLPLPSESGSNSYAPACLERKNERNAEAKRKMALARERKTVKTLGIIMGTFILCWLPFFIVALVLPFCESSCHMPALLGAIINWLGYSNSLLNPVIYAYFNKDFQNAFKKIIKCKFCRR
Put plainly: Inhibitory concentration against [3H]8-OH-DPAT binding to 5-hydroxytryptamine 1A receptor expressed in CHO-K1 cells. Format: cell-based.

Assay [4] deals with T2, D(3) dopamine receptor (Rattus norvegicus, UniProt P19020). Put plainly: Inhibitory concentration against [3H]spiperone binding to Dopamine receptor D3 expressed in CHO-K1 cells. Format: cell-based.
Assay [5] has as its system Rattus norvegicus. Put plainly: Accumulation of Dihydroxyphenylalanine in striatal region in rat after injecting drug compound 65 min and NSD 1015 at a dose of 100 mg/kg administered subcutaneously, 30 min before death, tested in vivo. Type of assay: functional. As to conditions: route subcutaneous.
The subject of assay [6] is Rattus norvegicus. The assay can be described thus: Locomotor activity, measured for 30 min after injection of drug, administered subcutaneously at 100 umol/kg. Type of assay: functional.
Assay [7] relates to Rattus norvegicus. The assay can be described thus: Accumulation of 5-Hydroxytryptophan in cortical brain region in rat after injecting drug compound 65 min and NSD 1015 at a dose of 100 mg/kg administered subcutaneously, 30 min before death, tested in vivo. Type of assay: functional. As to conditions: route subcutaneous.
Assay [8] addresses T3, Serotonin 2 (5-HT2) receptor (Rattus norvegicus, UniProt P30994+P08909+P14842). Put plainly: Inhibitory concentration against [3H]ketanserin binding to 5-hydroxytryptamine 2 receptor expressed in CHO-K1 cells. Format: cell-based.
For assay [9], the system named is Rattus norvegicus. Put plainly: Accumulation of Dihydroxyphenylalanine in limbic region in rat after injecting drug compound 65 min and NSD 1015 at a dose of 100 mg/kg administered subcutaneously, 30 min before death, tested in vivo. As to conditions: route subcutaneous. Type of assay: functional, Limbic system.
The target in assay [10] is T4, D(2) dopamine receptor (Rattus norvegicus, UniProt P61169). Put plainly: Inhibitory concentration against [3H]U-86170 binding to Dopamine receptor D2 expressed in CHO-K1 cells. Format: cell-based.
For assay [11], the system named is Rattus norvegicus. The assay can be described thus: Accumulation of 5-Hydroxytryptophan in striatal region in rat after injecting drug compound 65 min and NSD 1015 at a dose of 100 mg/kg administered subcutaneously, 30 min before death, tested in vivo. Format: functional. As to conditions: route subcutaneous.
Assay [12] deals with T4, D(2) dopamine receptor. The assay can be described thus: Binding affinity against [3H]U-86170 binding to Dopamine receptor D2 expressed in CHO-K1 cells. Format: cell-based.
Assay [13] addresses T1, 5-hydroxytryptamine receptor 1A. The assay can be described thus: Binding affinity against [3H]8-OH-DPAT binding to 5-hydroxytryptamine 1A receptor expressed in CHO-K1 cells. Format: cell-based.
Assay [14] concerns the target T2, D(3) dopamine receptor. The assay can be described thus: Binding affinity against [3H]spiperone binding to Dopamine receptor D3 expressed in CHO-K1 cells. Format: cell-based.
For assay [15], the target named is T3, Serotonin 2 (5-HT2) receptor. The assay can be described thus: Binding affinity against [3H]ketanserin binding to 5-hydroxytryptamine 2 receptor expressed in CHO-K1 cells. Type of assay: cell-based.
Assay [16] concerns Rattus norvegicus. The assay can be described thus: Accumulation of Dihydroxyphenylalanine in limbic region in rat after injecting drug compound 65 min and NSD 1015 at a dose of 0.07 mg/kg administered subcutaneously, 30 min before death, tested in vivo. Format: functional, Limbic system. As to conditions: route subcutaneous.
Assay [17] has as its system Rattus norvegicus. Put plainly: Accumulation of Dihydroxyphenylalanine in striatal region in rat after injecting drug compound 65 min and NSD 1015 at a dose of 0.07 mg/kg administered subcutaneously, 30 min before death, tested in vivo. Type of assay: functional. As to conditions: route subcutaneous.

T2 sequence (P19020 whole entry): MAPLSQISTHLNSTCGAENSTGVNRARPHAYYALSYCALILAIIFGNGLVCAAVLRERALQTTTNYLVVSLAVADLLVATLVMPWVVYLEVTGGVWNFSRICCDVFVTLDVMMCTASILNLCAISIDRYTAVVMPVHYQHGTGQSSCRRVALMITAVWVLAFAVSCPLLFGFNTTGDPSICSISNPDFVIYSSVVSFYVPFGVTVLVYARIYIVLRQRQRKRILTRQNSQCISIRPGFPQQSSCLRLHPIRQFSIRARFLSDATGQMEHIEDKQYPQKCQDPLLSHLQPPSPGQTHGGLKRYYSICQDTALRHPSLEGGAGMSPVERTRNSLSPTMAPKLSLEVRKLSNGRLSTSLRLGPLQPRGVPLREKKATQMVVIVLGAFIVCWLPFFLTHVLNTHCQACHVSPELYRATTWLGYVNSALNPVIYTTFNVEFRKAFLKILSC
T4 sequence (P61169 whole entry): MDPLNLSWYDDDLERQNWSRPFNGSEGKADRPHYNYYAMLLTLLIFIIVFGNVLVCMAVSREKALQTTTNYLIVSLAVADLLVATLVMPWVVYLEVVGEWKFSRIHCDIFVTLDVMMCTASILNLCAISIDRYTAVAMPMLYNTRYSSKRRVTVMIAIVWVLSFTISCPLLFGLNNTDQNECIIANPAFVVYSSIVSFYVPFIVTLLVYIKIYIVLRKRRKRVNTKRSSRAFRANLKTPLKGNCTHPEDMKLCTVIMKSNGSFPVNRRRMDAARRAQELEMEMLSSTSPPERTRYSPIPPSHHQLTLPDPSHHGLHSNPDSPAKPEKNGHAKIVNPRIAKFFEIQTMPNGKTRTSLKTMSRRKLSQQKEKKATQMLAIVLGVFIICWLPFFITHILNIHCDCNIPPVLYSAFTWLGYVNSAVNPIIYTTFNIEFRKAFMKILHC

With `CN1CCC(C2=CN=CCC2)C1` (configuration not stated), the Control in assay [1] is on record as 126%; in assay [2] it was 72%; in assay [5], 112%; in [6], 47%; in assay [7], 79%; in assay [9], 112%. The Control in assay [11] is listed as 112%. The IC50 in assay [3], in assay [4], in assay [8] and in [10] was greater than 1000 nM in each case.

On to `FC(F)(F)c1cccc(C2CCNC2)c1` (configuration not stated), for which the Control in [1] was determined as 72%; in [2], 70%; in assay [5], 163%; in assay [6] it was 74%; in [7], 70%; in assay [9] it was 113%. The same compound returned a Control in [11] of 82%. Also, the Ki in assay [12] is 100 nM; in [13], 174 nM; in assay [14], 633 nM; in assay [15] it was 227 nM.

Regarding `CCCN1CCC(c2cccnc2)C1` (configuration not stated), the Control is 132% in assay [1]; 90% in assay [2]; 108% in assay [5]; 15% in [6]; 94% in [7]; 111% in assay [9]. For the same compound, the Control in assay [11] came out at 104%. The IC50 in assay [3], in [4], in assay [8] and in assay [10] was greater than 1000 nM in each case.

With `CS(=O)(=O)c1cccc(C2CCNC2)c1` (configuration not stated), the Control in [1] is on record as 104%; in assay [2], 96%; in assay [5], 91%; in assay [6], 71%; in assay [7] it was 98%; in assay [9], 89%. In addition, the Control in [11] was 92%. In addition, the IC50 in [3], in assay [4], in [8] and in [10] was greater than 1000 nM in each case.

Turning to `c1ccc2c(C3CCNC3)cccc2c1` (configuration not stated), the Control is 104% in [1]; 94% in assay [2]; 82% in assay [5]; 129% in [6]; 86% in assay [7]; 92% in assay [9]. Further, the Control in [11] was 93%. Also, the Ki in assay [12] is 264 nM; in assay [13] it was 95 nM; in [15] it was 40 nM. In [4], this compound registered an IC50 greater than 1000 nM.

For `CCCN1CCC[C@@H](c2cccc(S(C)(=O)=O)c2)C1`, the Control is given as 165% in assay [1]; 83% in assay [2]; 317% in assay [5]; 135% in [6]; 78% in [7]; 228% in [9]. This compound gave a Control in assay [11] of 85%.

With `CCCN1CCC(c2cccc(S(C)(=O)=O)c2)C1` (configuration not stated), the Control in assay [1] was 143%; in [2], 97%; in assay [5] it was 256%; in assay [6] it was 126%; in [7] it was 92%; in assay [9] it was 207%. The Control in [11] was 78%. The Ki in assay [13] is 807 nM. The IC50 in assay [4], in assay [8] and in [10] was greater than 1000 nM throughout.

As for `CCCN1CCC(c2cccc3ccccc23)C1` (configuration not stated), the Control in assay [1] stood at 115%; in assay [2], 53%; in [5] it was 177%; in assay [6], 80%; in [7], 57%; in [9] it was 118%. Further, the Control in assay [11] is listed as 54%. Besides, the Ki in assay [12] came out at 71 nM; in [13], 73 nM; in [15], 113 nM. In addition, the IC50 in [4] was greater than 1000 nM.

`CCCN1CCC(c2cccc(C(F)(F)F)c2)C1` (configuration not stated): the Control is reported as 131% in [1]; 97% in [2]; 297% in assay [5]; 89% in [6]; 87% in assay [7]; 205% in [9]. Besides, the Control in [11] came out at 78%. The Ki worked out at 151 nM in assay [12], 351 nM in assay [13], 35 nM in assay [14] and 569 nM in [15].

Regarding `CCCN1CCC(c2ccccc2)C1` (configuration not stated), the Control in assay [1] stood at 130%; in assay [2], 92%; in assay [5], 66%; in [6] it was 115%; in assay [7], 83%; in assay [9], 96%. In assay [11], this compound returned a Control of 81%. The Ki is 625 nM in [12], 453 nM in [13] and greater than 2500 nM in [14]. In [8], this compound showed an IC50 greater than 1000 nM.

Turning to `CCCN1CCC(C2CCCCC2)C1` (configuration not stated), the Control is listed as 119% in assay [1]; 102% in assay [2]; 95% in [5]; 87% in assay [6]; 88% in [7]; 116% in assay [9]. Also, in assay [11], the Control is 103%. Besides, the IC50 in assay [3], in [4], in [8] and in [10] was greater than 1000 nM in each case.

As for `CCCN1CCC(c2cccc(OS(=O)(=O)C(F)(F)F)c2)C1` (configuration not stated), the Control is recorded as 114% in assay [1]; 85% in assay [2]; 290% in assay [5]; 93% in [6]; 98% in assay [7]; 211% in assay [9]. Further, the Control in assay [11] worked out at 86%. The Ki in [12] was 162 nM; in assay [13], 652 nM; in assay [14] it was 62 nM. The IC50 in assay [8] is on record as greater than 1000 nM.

Regarding `O=C(CCCN1CCC(O)(c2ccc(Cl)cc2)CC1)c1ccc(F)cc1` [HALOPERIDOL], the Control in [16] stood at 241%; in assay [6] it was 2%; in assay [17] it was 310%.

As for `CCCN1CCC(c2cccc(O)c2)C1` (configuration not stated), the Control in assay [1] was 88%; in assay [2], 74%; in assay [5], 153%; in assay [6] it was 20%; in [7] it was 79%; in assay [9], 113%. The compound further returned a Control in assay [11] of 68%. Also, the Ki worked out at 68 nM in assay [12], 201 nM in assay [13] and 52 nM in [14]. Moreover, in assay [8], the IC50 is greater than 1000 nM.
